Reference: patent US10433548B2, “Biocidal compositions comprising iron chelators” (Arch Chemicals, Inc., priority 2012, dated 2019)
Converted amounts (≈) assume the structure as drawn. Where two headings read alike, the source gives them in different places.

Tests used:
[1] = tested on: S. aureus; assay: Time-kill test (microbial reduction); format: cell-based; settings: for log reduction: from initial microbial population
Protocol: (§1) Time-kill test were performed to assess microbial reduction by antimicrobial agents, with and without chelators, against S. aureus, P. aeruginosa, and E. coli.
(§2) 100 μL of sample and 100 μL of bacterial suspension at 5×10^5 cells/mL was loaded into the first well of each row in a 96-well plate, mixed and after specific contact time, 10-fold serial dilutions were made using a multichannel pipette by transferring 20 μL into 180 μL of Letheen broth, mixing 10 times. The process was repeated. Thereafter, three replicates of 10 μL from each of the six selected dilutions were plated onto Tryptic Soy Agar using a 2-20 μL monochannel pipette. Plates were allowed to dry, then placed into an incubator at 35° C. for 24 hrs. Colonies (0.5-1 mm) were enumerated using a colony counter.

[2] = tested on: P. aeruginosa; assay: Time-kill test (microbial reduction); format: cell-based; settings: for log reduction: from initial microbial population
Protocol: as §1, §2

[3] = tested on: E. coli; assay: Time-kill test (microbial reduction); format: cell-based; settings: E. coil; for log reduction: from initial microbial population
Protocol: as §1, §2

[4] = tested on: P. acnes; assay: Minimum Inhibitory Concentration (MIC) test, 96-well microtiter plate; format: cell-based; settings: for MIC: Cutibacterium acnes
Protocol: (§3) Activities of antimicrobial compositions of the present invention were tested against a range of typical skin microorganisms in a Minimum Inhibitory Concentration (MIC) test. MICs for the organisms were determined in a standard 96-well microtiter plate assay in Brain Heart Infusion Broth (BHI) for P. acnes; Tryptic Soy Broth (TSB) for the remaining bacteria; Ushijima Broth for M. furfur; Sabouraud Dextrose Broth (SDB) for other fungi. Samples were tested in duplicate on separate plates. For bacteria and fungi plates, samples were serially diluted into double strength media on the microtiter plates. The bacterial or fungal inocula, suspended in sterile deionized water, were then added to the wells in 1:1 ratio to the medium. The final concentration of bacteria in the wells was 5×10^5 CFUs/mL, the final concentration of fungi was 5×10^4 cells or spores/mL. Plates were incubated: anaerobically at 35° C. for 7 days for P. acnes; aerobically at 35° C. for 2 days for the remaining bacteria and aerobically at 35° C. for 7 days for M. furfur; aerobically at 28° C. for 7 days for T. mentagrophytes.

[5] = tested on: E. coli; assay: as above; format: cell-based; settings: Active ZPT alone or plus chelator or chelator + Zn(II); Molar Ratio HBED 10×, 8-HQ 5×, 8-HQ + Zn(II) 1×, 2-HPNO 10×
Protocol: as §3

[6] = tested on: M. furfur; assay: as above; format: cell-based; set-up: unit not given here
Protocol: as §3

[7] = tested on: S. epidermidis; assay: as above; format: cell-based; set-up: unit not given here
Protocol: as §3

[8] = tested on: P. aeruginosa; assay: as above; format: cell-based; set-up: unit not given here
Protocol: as §3

[9] = tested on: T. mentagrophytes; assay: as above; format: cell-based; set-up: unit not given here
Protocol: as §3

[10] = tested on: C. pyrenoidosa; assay: as above; format: cell-based; set-up: unit not given here
[11] = tested on: R. subcapitata; assay: as above; format: cell-based; set-up: unit not given here
[12] = tested on: P. faveolarum; assay: as above; format: cell-based; set-up: unit not given here
Protocol: as §3

[13] = tested on: A. brasiliensis; assay: as above; format: cell-based; set-up: unit not given here
Protocol: as §3

[14] = tested on: C. albicans; assay: as above; format: cell-based; set-up: unit not given here; settings: concentration of ZPT; ZPT alone or with potentiator, Molar Eq (Pot:ZPT) 10:1, 8-HQ-Zn 1:1
Protocol: as §3

[15] = tested on: B. subtilis; assay: as above; format: cell-based; set-up: unit not given here
Protocol: as §3

[16] = tested on: S. aureus, P. aeruginosa, and E. coli; settings: in combination with ZPT
Protocol: as §1, §2

[17] = tested on: A. pullulans; assay: Minimum Inhibitory Concentration (MIC) test, 96-well microtiter plate; format: cell-based; set-up: unit not given here; settings: concentration of BIT; BIT alone or with potentiator, Molar Eq (Pot:BIT) 10:1
Protocol: as §3

[18] = Active ZPT alone or plus chelator or chelator + Zn(II), Molar Ratio HBED 10×, 8-HQ 5×, 8-HQ + Zn(II) 1×, 2-HPNO 10×
[19] = concentration of ZPT, ZPT alone or with potentiator, Molar Eq (Pot:ZPT) 10:1, 8-HQ-Zn 1:1
[20] = concentration of BIT, BIT alone or with potentiator, Molar Eq (Pot:BIT) 10:1

Row | Compound | log reduction ([1]; 4 hr contact) [log] | log reduction ([1]; 8 hr contact) [log] | CFU ([2]; 4 hr contact) | log reduction ([2]; 4 hr contact) [log] | CFU ([2]; 8 hr contact) | log reduction ([2]; 8 hr contact) [log] | CFU ([3]; 4 hr contact) | log reduction ([3]; 4 hr contact) [log] | CFU ([3]; 8 hr contact) | log reduction ([3]; 8 hr contact) [log] | MIC E. Coli [5] | MIC M. furfur [6, 18] | MIC S. epidermidis [7, 18] | MIC P. aeruginosa [8, 18] | MIC T. mentagrophytes [9, 18] | MIC C. pyrenoidsa [10, 19] | MIC R. subcapitata [11, 19] | MIC P. faveolarum [12, 19] | MIC A. brasiliensis [13, 19] | MIC M. furfur [6, 19] | other results
1 | Oc1cccc2cccnc12 [8-HQ, 8-hydroxyquinoline] | 1 | 2 | 2.6 × 10^6 CFUs/mL | 1 | 3 × 10^5 CFUs/mL | 3 | 8.6 × 10^5 CFUs/mL | 2 | 1.2 × 10^6 CFUs/mL | 2 | 7.81 | 1.95 | 0.49 | 125 | 7.81 | – | – | – | – | – | CFU ([1]; 4 hr contact): 1.6 × 10^5 CFUs/mL; CFU ([1]; 8 hr contact): 6.3 × 10^5 CFUs/mL; MIC ([4]; read-out: MIC values against P. acnes, Benzoyl Peroxide): 0.78 µg/mL (≈ 5.37 µM); MIC ([4]; read-out: MIC values against P. acnes, Salicylic Acid): 0.78 µg/mL (≈ 5.37 µM)
2 | Oc1cccc2cccnc12.[Zn] [8-HQ-Zn, 8-hydroxyquinoline zinc salt] | – | – | – | – | – | – | – | – | – | – | 7.81 | 1.95 | 1.95 | 31.5 | 3.91 | 0.73 | 1.95 | 0.24 | 15.63 | 1.95 | MIC S. epidermidis [7, 19]: 1.95; MIC C. albicans [14]: 7.81; MIC P. aeruginosa [8, 19]: 31.25; MIC T. mentagrophytes [9, 19]: 3.91; MIC B. subtilis [15, 19]: 0.98
3 | O=C(O)CN(CCN(CC(=O)O)Cc1ccccc1O)Cc1ccccc1O [HBED, N,N-bis(2-hydroxybenzyl)ethylenediamine-N,N-diacetic acid] | 1 | 2 | >10^7 CFUs/mL | 0 | 1.6 × 10^5 CFUs/mL | 3 | 8.3 × 10^5 CFUs/mL | 2 | 1.6 × 10^6 CFUs/mL | 2 | 15.63 | 3.91 | 0.98 | 62.5 | 0.49 | – | – | – | – | – | ranking of chelators in time-kill studies [16]: best chelator; MIC C. pyrenoidsa [10, 20]: 2.03; MIC R. subcapitata [11, 20]: 4.06; CFU ([1]; 4 hr contact): 1.4 × 10^6 CFUs/mL; CFU ([1]; 8 hr contact): 2.3 × 10^5 CFUs/mL; MIC values against P. acnes, Benzoyl Peroxide ([4]; Benzoyl Peroxide without chelator or with chelator, Molar Eq. HBED 10×, 8-HQ 5×, DTPA 10×, Desferrioxamine 1×): 3.13 ppm; MIC values against P. acnes, Salicylic Acid ([4]; Salicylic Acid without chelator or with chelator, Molar Eq. HBED 10×, 8-HQ 5×, DTPA 10×, Desferrioxamine 1×): 3.13 ppm; MIC P. faveolarum [12, 20]: 4.06; MIC A. brasiliensis [13, 20]: 32.50; MIC P. aeruginosa [8, 20]: 8.13; MIC B. subtilis [15, 20]: 0.51; MIC A. pullulans [17]: 4.06
4 | O=C(O)CN(CCN(CC(=O)O)Cc1ccccc1O)Cc1ccccc1O.[Zn] [HBED-Zn] | – | – | – | – | – | – | – | – | – | – | 3.91 | 0.98 | 3.91 | 15.63 | 1.46 | 0.98 | 0.49 | 0.24 | 7.81 | 0.98 | MIC S. epidermidis [7, 19]: 3.91; MIC C. albicans [14]: 3.91; MIC P. aeruginosa [8, 19]: 15.63; MIC T. mentagrophytes [9, 19]: 1.46; MIC B. subtilis [15, 19]: 1.95
5 | zinc pyrithione [ZPT] | 1 | 2 | 7.3 × 10^6 CFUs/mL | 1 | 6.3 × 10^6 CFUs/mL | 2 | >10^7 CFUs/mL | 0 | >10^7 CFUs/mL | 0 | 1.95-7.81 | 1.25-1.95 | 1.95-7.8 | 31.25-62.5 | 3.91-5 | 0.24-4 | 1.95-4 | 0.05-2 | 7.81-15.6 | 0.98-4 | MIC S. epidermidis [7, 19]: 1.95-7.8; MIC C. albicans [14]: 7.81; MIC P. aeruginosa [8, 19]: 31-62; MIC T. mentagrophytes [9, 19]: 3.91-8; MIC B. subtilis [15, 19]: 1.95-4
